Measured values published in patent publication US12649751B2 (Arcus Biosciences, Inc., priority 2022, dated 2026).

target: HPK1 (Homo sapiens, UniProt Q92918); assay: HPK1 Biochemical Assay (ADP-Glo luminescence; low ATP 10 μM or high ATP 200 μM); conditions: 2 nM HPK1, 10 μM ATP; read-out: Biochemical Potency (low ATP)
Sequence (Q92918 whole entry, species assumed): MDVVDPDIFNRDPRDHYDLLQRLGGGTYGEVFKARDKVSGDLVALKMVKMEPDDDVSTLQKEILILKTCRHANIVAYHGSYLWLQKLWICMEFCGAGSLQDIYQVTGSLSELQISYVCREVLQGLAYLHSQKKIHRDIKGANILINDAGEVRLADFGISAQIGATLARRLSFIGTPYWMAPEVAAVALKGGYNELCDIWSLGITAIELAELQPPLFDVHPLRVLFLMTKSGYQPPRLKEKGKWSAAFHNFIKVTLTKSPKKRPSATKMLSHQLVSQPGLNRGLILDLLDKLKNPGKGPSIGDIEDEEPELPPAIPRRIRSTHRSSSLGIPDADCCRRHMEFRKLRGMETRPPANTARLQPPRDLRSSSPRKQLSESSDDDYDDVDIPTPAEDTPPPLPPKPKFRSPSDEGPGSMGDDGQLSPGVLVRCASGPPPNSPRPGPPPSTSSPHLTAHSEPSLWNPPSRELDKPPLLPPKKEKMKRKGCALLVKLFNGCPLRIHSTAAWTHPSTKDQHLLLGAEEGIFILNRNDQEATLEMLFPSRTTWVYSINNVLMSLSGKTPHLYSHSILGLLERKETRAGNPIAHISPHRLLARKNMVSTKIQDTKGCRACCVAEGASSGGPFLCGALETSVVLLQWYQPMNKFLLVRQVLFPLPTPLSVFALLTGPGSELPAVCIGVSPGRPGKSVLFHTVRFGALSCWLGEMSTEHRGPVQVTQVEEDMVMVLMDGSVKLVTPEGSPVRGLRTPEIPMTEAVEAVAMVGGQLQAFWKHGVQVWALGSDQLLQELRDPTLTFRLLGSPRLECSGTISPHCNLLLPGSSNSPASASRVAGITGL

IC50	SMILES
< 100 nM	Cc1cccnc1-c1nc2cc(Nc3ccc(C)c(N4CCC[C@H]4CN)n3)ncc2s1 [Example 72, 6-[(2S)-2-(Aminomethyl)pyrrolidin-1-yl]-5-methyl-N-[2-(3-methylpyridin-2-yl)-[1,3]thiazolo[5,4-c]pyridin-6-yl]pyridin-2-amine]
< 100 nM	Cc1ccc(Nc2cc3nc(-c4ncccc4C(C)C)sc3cn2)nc1CN1CCCC1 [Example 50, 5-Methyl-N-{2-[3-(propan-2-yl)pyridin-2-yl]-[1,3]thiazolo[5,4-c]pyridin-6-yl}-6-[(pyrrolidin-1-yl)methyl]pyridin-2-amine]
< 100 nM	CN1C[C@@H]2C[C@H]1CN2c1nccc(Nc2cc3nc(-c4ccnc(N5CC[C@H](O)C5)c4)sc3cn2)n1 [Example 266, (3S)-1-{4-[6-({2-[(1S,4S)-5-Methyl-2,5-diazabicyclo[2.2.1]heptan-2-yl]pyrimidin-4-yl}amino)-[1,3]thiazolo[5,4-c]pyridin-2-yl]pyridin-2-yl}pyrrolidin-3-ol]
< 100 nM	CN1C[C@@H]2C[C@H]1CN2c1cncc(Nc2cc3nc(-c4ccnc(N5CC[C@@H](O)C5)c4)sc3cn2)n1 [Example 263, (3R)-1-{4-[6-({6-[(1S,4S)-5-Methyl-2,5-diazabicyclo[2.2.1]heptan-2-yl]pyrazin-2-yl}amino)-[1,3]thiazolo[5,4-c]pyridin-2-yl]pyridin-2-yl}pyrrolidin-3-ol]
< 100 nM	CN1C[C@@H]2C[C@H]1CN2c1nccc(Nc2cc3nc(-c4ccnc5c4cnn5C)sc3cn2)n1 [Example 294, N-(2-{1-methyl-1H-pyrazolo[3,4-b]pyridin-4-yl}-[1,3]thiazolo[5,4-c]pyridin-6-yl)-2-[(1 S,4S)-5-methyl-2,5-diazabicyclo[2.2.1]heptan-2-yl]pyrimidin-4-amine]
< 100 nM	CNS(=O)(=O)c1cccc(-c2nc3cc(Nc4cccc(N5C[C@@H]6C[C@H]5CN6)n4)ncc3s2)c1 [Example 292, 3-[6-({6-[(1S,4S)-2,5-diazabicyclo[2.2.1]heptan-2-yl]pyridin-2-yl}amino)-[1,3]thiazolo[5,4-c]pyridin-2-yl]-N-methylbenzene-1-sulfonamide]
< 100 nM	Cc1ccc(Nc2cc3nc(-c4cccnc4)sc3cn2)nc1CN1CCCC1 [Example 53, 5-Methyl-N-[2-(pyridin-3-yl)-[1,3]thiazolo[5,4-c]pyridin-6-yl]-6-[(pyrrolidin-1-yl)methyl]pyridin-2-amine]
< 100 nM	Cc1cc(Nc2cc3nc(-c4ccncc4)sc3cn2)nc(O[C@H]2CCNC2)c1 [Example 166, 4-Methyl-N-[2-(pyridin-4-yl)-[1,3]thiazolo[5,4-c]pyridin-6-yl]-6-[(3S)-pyrrolidin-3-yloxy]pyridin-2-amine]
< 100 nM	Cc1cc(Nc2cc3nc(-c4ncccc4C)sc3cn2)nc(OC2CCNCC2)c1 [Example 174, 4-Methyl-N-[2-(3-methylpyridin-2-yl)-[1,3]thiazolo[5,4-c]pyridin-6-yl]-6-(piperidin-4-yloxy)pyridin-2-amine]
< 100 nM	Cc1ccc(Nc2cc3nc(-n4nccc4C)sc3cn2)nc1N1CCNCC1 [Example 204, 5-Methyl-N-[2-(5-methyl-1H-pyrazol-1-yl)-[1,3]thiazolo[5,4-c]pyridin-6-yl]-6-(piperazin-1-yl)pyridin-2-amine]

same assay, conditions: HPK1 ADP-Glo assay, high ATP (200 μM ATP, 5 nM HPK1); read-out: Biochemical Potency (high ATP)

IC50	SMILES
< 100 nM	CC[C@@H]1COCCN1c1cncc(-c2nc3cc(Nc4cc(C)nc(N5C[C@@H]6C[C@H]5CN6CC)n4)ncc3s2)c1 [Example 473]

same assay, conditions: HPK1 ADP-Glo assay, low ATP (10 μM ATP, 2 nM HPK1); read-out: Biochemical Potency (low ATP)

IC50	SMILES
< 100 nM	CN1C[C@@H]2C[C@H]1CN2c1cncc(Nc2cc3nc(-c4cccc(C(=O)N5CC[C@H](F)C5)c4)sc3cn2)n1 [Example 417]
100 to 1000 nM	CN1C[C@@H]2C[C@H]1CN2c1nccc(Nc2cc3nc(N4CCc5cccnc5C4)sc3cn2)n1 [Example 428]
< 100 nM	CN1C[C@@H]2C[C@H]1CN2c1cncc(Nc2cc3nc(-c4ncco4)sc3cn2)n1 [Example 421]
